In patent publication US20120010179A1, “Methods of using a thiazole derivative” (priority 2006, published 2012):

Key:
patients with COPD [1] = experiment: Pharmacodynamic and safety assessments (ECG, vital signs, serum potassium, adverse events, laboratory), Example 2; assay type: in vivo, human
Description: Twelve-lead electrocardiograms (ECGs) were conducted after the subject had been resting and supine for ≧3 minutes. In addition to screening and pre-treatment baseline (Day 0) measurements, ECGs were also recorded at specific times during the treatment period. All 12-lead ECG monitors used for this study were calibrated and standardized. The ventricular rate, PR interval (the time elapsing between the beginning of the P wave and the beginning of the QRS interval in an electrocardiogram, corresponding to the electrical activity through the atria), QRS interval (the movement of electrical impulses through the ventricles), QT/QTc interval (the QT interval measures the time between the start of the Q wave and the end of the T wave in the heart's electrical cycle; QTc is a corrected QT interval, as determined by Fridericia's formula [QTcF] and Bazett's formula [QTcB]), and the overall ECG interpretation (normal or abnormal) were documented. Measurements were recorded prior to collection of any blood samples, where applicable. At least three original copies of each ECG (one each for the site, for the sponsor, and for the central ECG provider) were made. […]
Vital signs (heart rate and systolic blood pressure) were measured after the subject had been sitting for ≧3 minutes. […] Measurements were recorded prior to the collection of any blood samples, where applicable. […]

[2] = tested on: guinea pig models of pulmonary disease; details: cited from earlier work
patients with COPD [3] = experiment: Pulmonary function tests (trough and peak FEV1), tetomilast with Advair Diskus 250/50, parallel group study (Example 2); assay type: in vivo, human; set-up: Estimated Treatment Effect, change from baseline in trough FEV1 (tetomilast versus placebo) / Estimated Treatment Effect in Baseline Mean trough FEV1, Day 7 predose (tetomilast versus placebo) / Estimated Treatment Effect, change from baseline in peak FEV1 (tetomilast versus placebo): unit not given here
Description: Pulmonary function tests were conducted throughout the study to monitor the subjects' respiratory status. Flow volume curves were collected via spirometry. Combivent® (Boehringer Ingleheim Pharmaceuticals, Inc., Ridgefield Conn.), which was used for short-acting rescues as needed throughout the studies described below, was withheld for 6 hours prior to any spirometric testing. Spirometry testing was performed at screening, baseline (Day 0), and at specific times during the treatment period. Each subject could have up to 5 spirometric readings at any study time point. Spirometric readings were performed using equipment from the central provider, Quantum Research, Inc. (Louisville, Colo.). All spirometry readings were recorded and sent to Quantum Research, Inc. for analysis
For the spirometric readings, the best effort was reported as follows. The highest acceptable forced expiratory volume in one second (FEV1) value was selected as the “best” of the given test session. If two or more FEV1 values were tied as highest, the sum of FEV1 and forced vital capacity (FVC) for those efforts was used. If both conditions were equal between the two efforts, the values reported were taken from the effort that occurred first, chronologically, based on date and time of the effort.
This study was a multicenter, randomized, double-blind, placebo-controlled, parallel group, outpatient, phase 1B study of Advair Diskus® 250/50 (fluticasone propionate and salmeterol xinafoate, GlaxoSmithKline, Research Triangle Park, N.C.) administered concomitantly with oral placebo or 50 mg tetomilast (2×25 mg tablets) in patients with COPD. All patients underwent a minimum 28-day washout from short-acting inhaled corticosteroids, long-acting bronchodialators, and/or continuous oxygen therapy (>16 hours per day), and a minimum 7-day washout from beta2-agonists and/or oral theophylline. Patients were randomly assigned to one of the two treatment arms (oral tetomilast 50 mg or placebo) prior to dosing on Day 1, and were distributed 1:1 between the two groups according to a computer-generated randomization code provided by the Otsuka Maryland Research Institute (OMRI) Biostatistics Department. Randomization was performed using a central IVRS system and was centralized across study centers.
Subjects received 7 days of treatment with tetomilast 50 mg or placebo oral dose in treatment period 1. During treatment period 2, Days 8 through 35, concomitant inhaled Advair Diskus® 250/50 was added to the treatment regimen.
Subjects were instructed to take their oral study medication (tetomilast 50 mg or placebo) QD with 8 ounces of water immediately after breakfast for all study treatment days. Subjects assigned to the placebo group received two placebo tablets QD. Subjects assigned to the tetomilast group received 2×25 mg tetomilast tablets QD. On study Days 1-7, 14, 21, 28, and 35, subjects consumed their oral study medication (tetomilast 50 mg or placebo) at the clinic in the presence of the study staff.
The inhaled Advair Diskus® 250/50 was self-administered by subjects on all study days between Days 8 and 35, except for Days 14, 21, 28, and 35, when the medication was administered at the clinic in the presence of the study staff. Advair Diskus® 250/50 was administered twice daily (BID). The morning dose coincided with the timing of the oral dose (tetomilast 50 mg or placebo). The evening dose was taken 12 hours later. Dosing times were recorded in subject diaries.
Combivent® (Boehringer Ingleheim Pharmaceuticals, Inc., Ridgefield, Conn.) was provided by the sponsor for short-acting rescue use during the study. Combivent® was withheld for 6 hours prior to any PFTs. Combivent® was supplied as a metered-dose inhaler. Each actuation meters 21 μg of ipratropium bromide and 120 μg of albuterol sulfate from the valve and delivers […] of ipratropium bromide and 103 μg of albuterol sulfate (equivalent to 90 μg albuterol base) from the mouthpiece. […]

[4] = tested on: lipopolysaccharide (LPS)-induced cytokine production (TNF-α, IL-1β, IL-6); details: tetomilast pretreatment; human whole blood from normal volunteers in vitro; cited from earlier work
[5] = Baseline Day 1 predose, Day 7, before Advair Diskus
[6] = Baseline Day 1 predose, Day 14, both with Advair Diskus 250/50 BID
[7] = Baseline Day 1 predose, Day 21, both with Advair Diskus 250/50 BID
[8] = Baseline Day 1 predose, Day 28, both with Advair Diskus 250/50 BID
[9] = Baseline Day 1 predose, Day 35, both with Advair Diskus 250/50 BID

CCOc1ccc(-c2nc(-c3cccc(C(=O)O)n3)cs2)cc1OCC [Tetomilast, 2-(3,4-diethoxyphenyl)-4-(2-carboxy-6-pyridyl)thiazole]
changes in heart rate, systolic blood pressure, serum potassium, or QT interval versus placebo (patients with COPD [1]; oral tetomilast in combination with Advair Diskus 250/50): No clinically meaningful changes | differences in adverse events, serum chemistry, hematology, or urinalysis versus placebo (patients with COPD [1]; oral tetomilast with inhaled Advair Diskus 250/50): no clinically meaningful differences | airway resistance and peak expiration flow [2]: improve | effect on inhaled Advair Diskus 250/50 response (FEV1), exploratory repeated measures analysis (patients with COPD [3]; Advair Diskus 250/50 with tetomilast versus Advair Diskus 250/50 alone, days 8 through 35): possible potentiation of the effect of inhaled fluticasone propionate plus salmeterol | Estimated Treatment Effect, change from baseline in peak FEV1 (tetomilast versus placebo) (patients with COPD [3]; Baseline Day 1 predose, Day 1, before Advair Diskus): 0.08 | Estimated Treatment Effect, change from baseline in trough FEV1 (tetomilast versus placebo) (patients with COPD [3]; Baseline Day 1 predose, Day 2, before Advair Diskus): 0.11 | Estimated Treatment Effect, change from baseline in trough FEV1 (tetomilast versus placebo) (patients with COPD [3]; Baseline Day 1 predose, Day 3, before Advair Diskus): 0.07 | Estimated Treatment Effect, change from baseline in trough FEV1 (tetomilast versus placebo) (patients with COPD [3]; Baseline Day 1 predose, Day 4, before Advair Diskus): 0.12 | Estimated Treatment Effect, change from baseline in trough FEV1 (tetomilast versus placebo) (patients with COPD [3]; Baseline Day 1 predose, Day 5, before Advair Diskus): 0.13 | Estimated Treatment Effect, change from baseline in trough FEV1 (tetomilast versus placebo) (patients with COPD [3]; Baseline Day 1 predose, Day 6, before Advair Diskus): 0.11 | Estimated Treatment Effect, change from baseline in peak FEV1 (tetomilast versus placebo) (patients with COPD [3]; [5]): 0.23 | Estimated Treatment Effect, change from baseline in trough FEV1 (tetomilast versus placebo) (patients with COPD [3]; [5]): 0.13 | Estimated Treatment Effect, change from baseline in peak FEV1 (tetomilast versus placebo) (patients with COPD [3]; [6]): 0.21 | Estimated Treatment Effect, change from baseline in trough FEV1 (tetomilast versus placebo) (patients with COPD [3]; [6]): 0.16 | Estimated Treatment Effect, change from baseline in peak FEV1 (tetomilast versus placebo) (patients with COPD [3]; [7]): 0.30 | Estimated Treatment Effect, change from baseline in trough FEV1 (tetomilast versus placebo) (patients with COPD [3]; [7]): 0.18 | Estimated Treatment Effect, change from baseline in peak FEV1 (tetomilast versus placebo) (patients with COPD [3]; [8]): 0.28 | Estimated Treatment Effect, change from baseline in trough FEV1 (tetomilast versus placebo) (patients with COPD [3]; [8]): 0.21 | Estimated Treatment Effect, change from baseline in peak FEV1 (tetomilast versus placebo) (patients with COPD [3]; [9]): 0.21 | Estimated Treatment Effect, change from baseline in trough FEV1 (tetomilast versus placebo) (patients with COPD [3]; [9]): 0.15 | Estimated Treatment Effect, change from baseline in trough FEV1 (tetomilast versus placebo) (patients with COPD [3]; Baseline Day 7 predose, Day 14, both with Advair Diskus 250/50 BID): 0.02 | Estimated Treatment Effect, change from baseline in trough FEV1 (tetomilast versus placebo) (patients with COPD [3]; Baseline Day 7 predose, Day 21, both with Advair Diskus 250/50 BID): 0.05 | Estimated Treatment Effect, change from baseline in trough FEV1 (tetomilast versus placebo) (patients with COPD [3]; Baseline Day 7 predose, Day 28, both with Advair Diskus 250/50 BID): 0.06 | Estimated Treatment Effect, change from baseline in trough FEV1 (tetomilast versus placebo) (patients with COPD [3]; Baseline Day 7 predose, Day 35, both with Advair Diskus 250/50 BID): 0.02 | Estimated Treatment Effect in Baseline Mean trough FEV1, Day 7 predose (tetomilast versus placebo) (patients with COPD [3]; Day 7 predose, before Advair Diskus): 0.38 | Trough FEV1 compared with placebo (patients with COPD [3]; day-1 baseline, all time points through day-7 except day-3, and day-14 through day-35 (with Advair Diskus 250/50)): statistically significantly improved | peak and average FEV1 improvements compared with placebo (patients with COPD [3]; days 7, 21 and 28, approached statistical significance at day 14 and day 35): statistically significant | LPS-induced cytokine production (TNF-α, IL-1β, IL-6) [4]: dose-related suppression
